# Test results taken from patent US3963716A, “Novel 1-phthalazone derivative, a process for its preparation and a pharmaceutical composition containing it” (priority 1973, dated 1976).
# Like-named read-outs stand apart in the source and are kept apart here.
# Key:
# human platelet = human platelet aggregation in vitro induced by ADP or adrenaline (CPRP); type: cell-based; settings: 200 s
# Experimental: Samples of human CPRP (citrated platelet-rich plasma) were incubated at 37°C. for 200 sec. with 1/10 volume of saline containing various amount of the compound to be tested. To the mixture was then added ADP (3μMole) or adrenaline (1 μg/ml). Intensity of primary and secondary aggregation was measured with a platelet aggregation meter (Chrono-Log, Model 300).
# Intensity of ADP- or adrenaline-induced aggregation of each sample, which was incubated with the compound, was compared with that of the same sample incubated with saline. The ratio was expressed as a percentage of intensity of aggregation with the compound against one with saline.
# The intensity of primary and secondary aggregation of platelets was measured by the procedure described in H. Yamazaki, T. Sano, et al.; title[Platelet Functions in Thromboembolic Disorders] Thrombosis et Diatheses Haemorrhagica "in press" and the references cited therein.
# aorta of rabbits = test: prevention of cholesterol-induced atherosclerosis in rabbits (surface covered by fatty streaks in the aorta); type: in vivo, albino rabbits; settings: rabbit aorta; oral 1 mg/Kg daily, 15 weeks, diet with 1% cholesterol; placebo 54.6±5.4
# Experimental: Forty healthy albino rabbits of the same age and of the same family were used in the experiment.
# After the completion of the regimen, the rabbits were killed and the percentage of the surface covered by fatty streaks was measured in each aorta of the rabbits stained with Sundan IV. The percent of the surface covered by fatty streaks in the aorta of the rabbits was measured by the procedure described in T. Shimamoto, F. Numano, T. Fujita; American Heart Journal, 71, 2216 (1966).
# [1] = tested on: spontaneously hypertensive rats; test: hypotensive effect in spontaneously hypertensive rats; type: in vivo, rat
# From the text: The present compounds have a unique hypotensive effect in spontaneously hypertensive rats. The spontaneously hypertensive rats, abbreviated as SH rats, are produced by selective breeding of spontaneously hypertensive rats and continuous inbreeding with hypertensive mates, and they might be acknowledged as genetically hypertensive. It is believed that SH rats have a striking similarity to human essential hypertension and their reactions can be extrapolated to this morbid condition.
# In the blood pressure test, SH rats weighing 210 - 250 g and aged 13-15 weeks were used, and the compounds tested were administered intraperitoneally. Each value in the Table V hows an average figure for three rats.
# in vivo = settings: mouse, oral, mice
# aortic wall of rabbits = test: regression of preestablished cholesterol-induced atherosclerosis in rabbits (cholesterol content of the aortic wall); type: in vivo, albino rabbits; settings: oral 1 mg/Kg daily, head prints (μg)
# From the text: For the regressive test, 50 healthy albino rabbits were fed with a diet containing 1% cholesterol for 15 weeks. Five rabbits were killed at the 15th week of the cholesterol feeding and the remaining 45 rabbits were divided into 3 groups. […] Five each of the rabbits of the 3 groups were killed after 6, 10 and 20 weeks, respectively. The total contents of cholesterol in the aortic wall were estimated by gas chromatography, the results of which are shown in the Table III.
# 1. The total content of cholesterol in the aortic wall was measured by the procedure described in T. Shimamoto, F. Numano, T. Fujita et al.; Asian med. Journal, 8. 12 (1965) 2. […] 3. The total chloesterol contents indicated in Table III were shown in μg per one mg of the dried aortic wall. The value in the Table is the average figure for 5 rabbits
# [2] = tested on: cyclic AMP phosphodiesterase; test: inhibition of cyclic AMP phosphodiesterase, human platelet; type: biochemical; settings: 50% inhibition of cyclic AMP phosphodiesterase; read-out: I50, Platelet (human)
# Experimental: (§1) The procedure of the experiment was carried out in accordance with the method described in H. Hidaka and M. Shibuya: title "A new assay of cyclic nucleotide phosphodiesterase and its application to humans", Biochemical Medicine, (in press).
# [3] = molecular target: cyclic AMP phosphodiesterase; test: inhibition of cyclic AMP phosphodiesterase, aortic wall intima (rabbit); type: biochemical; settings: 50% inhibition of cyclic AMP phosphodiesterase; read-out: I50, Aortic Wall, Intima (rabbit)
# Experimental: as §1
# [4] = molecular target: cyclic AMP phosphodiesterase; test: inhibition of cyclic AMP phosphodiesterase, aortic wall media (rabbit); type: biochemical; settings: 50% inhibition of cyclic AMP phosphodiesterase; read-out: I50, Aortic Wall, Media (rabbit)
# Experimental: as §1
# [5] = 40 μg/ml, intensity with compound vs saline, read-out: Inhibition ratio, primary aggregation, ADP 3 μM
# [6] = 40 μg/ml, intensity with compound vs saline, read-out: Inhibition ratio, secondary aggregation, ADP 3 μM
# [7] = 80 μg/ml, intensity with compound vs saline, read-out: Inhibition ratio, primary aggregation, ADP 3 μM
# [8] = 80 μg/ml, intensity with compound vs saline, read-out: Inhibition ratio, secondary aggregation, ADP 3 μM
# [9] = 300 μg/ml, intensity with compound vs saline, read-out: Inhibition ratio, primary aggregation, ADP 3 μM
# [10] = 300 μg/ml, intensity with compound vs saline, read-out: Inhibition ratio, secondary aggregation, ADP 3 μM
# [11] = read-out: Inhibition ratio, primary aggregation, Adrenaline 1μg/ml
# [12] = read-out: Inhibition ratio, secondary aggregation, Adrenaline 1μg/ml
# [13] = 50 mg/Kg intraperitoneally, 1 hr
# [14] = 50 mg/Kg intraperitoneally, 3 hr
# [15] = 50 mg/Kg intraperitoneally, 6 hr
# [16] = 50 mg/Kg intraperitoneally, 24 hr
# [17] = 50 mg/Kg intraperitoneally, 48 hr
# [18] = 50 mg/Kg intraperitoneally, before dosing
# [19] = 3.1 mg/Kg intraperitoneally, 1 hr
# [20] = 3.1 mg/Kg intraperitoneally, 3 hr
# [21] = 3.1 mg/Kg intraperitoneally, 6 hr
# [22] = 3.1 mg/Kg intraperitoneally, 24 hr
# [23] = 3.1 mg/Kg intraperitoneally, 48 hr
# [24] = 12.5 mg/Kg intraperitoneally, 1 hr
# [25] = 12.5 mg/Kg intraperitoneally, 3 hr
# [26] = 12.5 mg/Kg intraperitoneally, 6 hr
# [27] = 12.5 mg/Kg intraperitoneally, 24 hr
# [28] = 12.5 mg/Kg intraperitoneally, 48 hr
smiles,measurement,setting,value
O=c1[nH]nc(CO)c2ccccc12 [4-hydroxymethyl-1-phthalazone],activity at 40 µg/mL,human platelet; [5],86.2 ± 2.5%
same,activity at 40 µg/mL,human platelet; [6],72 ± 6.8%
same,activity at 80 µg/mL,human platelet; [7],82.4 ± 3.2%
same,activity at 80 µg/mL,human platelet; [8],64.9 ± 6.7%
same,activity at 300 µg/mL,human platelet; [9],84.5 ± 2%
same,activity at 300 µg/mL,human platelet; [10],68.3 ± 3.8%
same,activity at 40 µg/mL,human platelet; [11],98.8 ± 5.9%
same,activity at 80 µg/mL,human platelet; [11],92.3 ± 6%
same,activity at 300 µg/mL,human platelet; [11],85.4 ± 3.1%
same,activity at 40 µg/mL,human platelet; [12],85.9 ± 10.1%
same,activity at 80 µg/mL,human platelet; [12],69.2 ± 7.2%
same,activity at 300 µg/mL,human platelet; [12],60.2 ± 8%
same,Percent of surface covered by fatty streaks,aorta of rabbits,36.8±5.2%
same,Blood Pressure,[1]; [13],178
same,Blood Pressure,[1]; [14],179
same,Blood Pressure,[1]; [15],180
same,Blood Pressure,[1]; [16],182
same,Blood Pressure,[1]; [17],184
same,Blood Pressure,[1]; [18],183
same,hypotensive effect (in words),[1]; intraperitoneal or oral doses up to 50 mg/Kg,did not exhibit a significant hypotensive effect
same,LD50,in vivo,4000 mg/kg
"CCOC(=O)c1c(C)cc2c(CO)n[nH]c(=O)c2c1C [6,8-dimethyl-7-ethoxycarbonyl-4-hydroxymethyl-1-phthalazone]",activity at 2.5 µg/mL,"human platelet; 2.5 μg/ml, intensity with compound vs saline, read-out: Inhibition ratio, primary aggregation, ADP 3 μM",91.7 ± 8.3%
same,activity at 2.5 µg/mL,"human platelet; 2.5 μg/ml, intensity with compound vs saline, read-out: Inhibition ratio, secondary aggregation, ADP 3 μM",96 ± 8.7%
same,activity at 5 µg/mL,"human platelet; 5 μg/ml, intensity with compound vs saline, read-out: Inhibition ratio, primary aggregation, ADP 3 μM",93.3 ± 8.9%
same,activity at 5 µg/mL,"human platelet; 5 μg/ml, intensity with compound vs saline, read-out: Inhibition ratio, secondary aggregation, ADP 3 μM",59.8 ± 11.3%
same,activity at 10 µg/mL,"human platelet; 10 μg/ml, intensity with compound vs saline, read-out: Inhibition ratio, primary aggregation, ADP 3 μM",90.6 ± 3.8%
same,activity at 10 µg/mL,"human platelet; 10 μg/ml, intensity with compound vs saline, read-out: Inhibition ratio, secondary aggregation, ADP 3 μM",49.9 ± 6.9%
same,activity at 20 µg/mL,"human platelet; 20 μg/ml, intensity with compound vs saline, read-out: Inhibition ratio, primary aggregation, ADP 3 μM",93.1 ± 8.2%
same,activity at 20 µg/mL,"human platelet; 20 μg/ml, intensity with compound vs saline, read-out: Inhibition ratio, secondary aggregation, ADP 3 μM",56.2 ± 6.3%
same,activity at 40 µg/mL,human platelet; [5],68.5 ± 5.2%
same,activity at 40 µg/mL,human platelet; [6],41.9 ± 2.2%
same,activity at 2.5 µg/mL,human platelet; [11],88.5 ± 3.1%
same,activity at 5 µg/mL,human platelet; [11],82.4 ± 3%
same,activity at 10 µg/mL,human platelet; [11],89.1 ± 7.3%
same,activity at 20 µg/mL,human platelet; [11],97.5 ± 7.5%
same,activity at 2.5 µg/mL,human platelet; [12],52.8 ± 7.5%
same,activity at 5 µg/mL,human platelet; [12],52.4 ± 7.3%
same,activity at 10 µg/mL,human platelet; [12],57.1 ± 16%
same,activity at 20 µg/mL,human platelet; [12],99.6 ± 13.2%
same,Percent of surface covered by fatty streaks,aorta of rabbits,16.2±4.3%
same,"Cholesterol content (aortic wall, total)","aortic wall of rabbits; 6 weeks, placebo 32.1±3.6",20.8±3.1 μg/mg dry weight
same,"Cholesterol content (aortic wall, total)","aortic wall of rabbits; 10 weeks, placebo 33.8±3.0",9.7±4.2 μg/mg dry weight
same,"Cholesterol content (aortic wall, total)","aortic wall of rabbits; 20 weeks, placebo 29.5±5.4",4.2±1.8 μg/mg dry weight
same,IC50,[2],4.1 µM
same,IC50,[3],1.6 µM
same,IC50,[4],24 µM
same,Blood Pressure,[1]; [19],170
same,Depression % (blood pressure),[1]; [19],1.7%
same,Blood Pressure,[1]; [20],138
same,Depression % (blood pressure),[1]; [20],20.2%
same,Blood Pressure,[1]; [21],110
same,Depression % (blood pressure),[1]; [21],36.4%
same,Blood Pressure,[1]; [22],135
same,Depression % (blood pressure),[1]; [22],22.0%
same,Blood Pressure,[1]; [23],150
same,Depression % (blood pressure),[1]; [23],13.3%
same,Blood Pressure,"[1]; 3.1 mg/Kg intraperitoneally, before dosing",173
same,Blood Pressure,[1]; [24],173
same,Depression % (blood pressure),[1]; [24],1.1%
same,Blood Pressure,[1]; [25],155
same,Depression % (blood pressure),[1]; [25],11.4%
same,Blood Pressure,[1]; [26],120
same,Depression % (blood pressure),[1]; [26],28.6%
same,Blood Pressure,[1]; [27],142
same,Depression % (blood pressure),[1]; [27],18.9%
same,Blood Pressure,[1]; [28],155
same,Depression % (blood pressure),[1]; [28],11.4%
same,Blood Pressure,"[1]; 12.5 mg/Kg intraperitoneally, before dosing",175
same,Blood Pressure,[1]; [13],165
same,Depression % (blood pressure),[1]; [13],2.9%
same,Blood Pressure,[1]; [14],132
same,Depression % (blood pressure),[1]; [14],22.4%
same,Blood Pressure,[1]; [15],110
same,Depression % (blood pressure),[1]; [15],35.3%
same,Blood Pressure,[1]; [16],145
same,Depression % (blood pressure),[1]; [16],14.7%
same,Blood Pressure,[1]; [17],152
same,Depression % (blood pressure),[1]; [17],10.6%
same,Blood Pressure,[1]; [18],170
CC(=O)Oc1ccccc1C(=O)O [Acetylsalicylic acid],activity at 40 µg/mL,human platelet; [5],98.9 ± 3.4%
same,activity at 40 µg/mL,"human platelet; 40 μg/ml, intensity with compound vs saline, read-out: Inhibition ratio, primary aggregation, Adrenaline 1μg/ml",106 ± 3.3%
same,activity at 40 µg/mL,human platelet; [6],78 ± 9.9%
same,activity at 40 µg/mL,"human platelet; 40 μg/ml, intensity with compound vs saline, read-out: Inhibition ratio, secondary aggregation, Adrenaline 1μg/ml",45 ± 7.8%
same,activity at 80 µg/mL,human platelet; [7],95.7 ± 1.8%
same,activity at 80 µg/mL,"human platelet; 80 μg/ml, intensity with compound vs saline, read-out: Inhibition ratio, primary aggregation, Adrenaline 1μg/ml",95.6 ± 5.2%
same,activity at 80 µg/mL,human platelet; [8],70.2 ± 10.1%
same,activity at 80 µg/mL,"human platelet; 80 μg/ml, intensity with compound vs saline, read-out: Inhibition ratio, secondary aggregation, Adrenaline 1μg/ml",46.5 ± 7.9%
same,activity at 300 µg/mL,human platelet; [9],109 ± 3.6%
same,activity at 300 µg/mL,"human platelet; 300 μg/ml, intensity with compound vs saline, read-out: Inhibition ratio, primary aggregation, Adrenaline 1μg/ml",108 ± 2.6%
same,activity at 300 µg/mL,human platelet; [10],75.5 ± 5.9%
same,activity at 300 µg/mL,"human platelet; 300 μg/ml, intensity with compound vs saline, read-out: Inhibition ratio, secondary aggregation, Adrenaline 1μg/ml",62.7 ± 10.7%
Cn1c(=O)c2c(ncn2C)n(C)c1=O [caffeine],IC50,[2],350 µM
same,IC50,[4],460 µM
